Assay results reported in publication PMC11227536, “Modulation of the Meisenheimer complex metabolism of nitro-benzothiazinones by targeted C-6 substitution” (Communications Chemistry, 2024).
≈ marks a conversion by molar mass, not a printed value.

Key:
Assay type in all cases: cell-based
Cytotoxicity assay = settings: human, n = 4
Procedure: (§1) Supplementary Method 5: Biological Assays […]
(§2) 2. Proliferation and cytotoxicity assay
(§3) Cells and culture conditions
(§4) The following cell lines and media were used:
(§5) Cell line Cell culture medium
(§6) Cells were grown in the appropriate cell culture medium supplemented with 10 mL/L ultraglutamine 1 […]
(§7) heat inactivated fetal bovine serum (GIBCO Life Technologies 10270-106) at 37 °C in 5% CO 2 in high density polyethylene flasks (NUNC 156340).
(§8) To decide if the compounds have an antiproliferative and/or a cytotoxic effect on human cells, cell death and retardation of cell proliferation were assessed. Under our experimental conditions, the optical density measured from the CellTiter-Blue® reagent and methylene blue assay is proportional to the […]
The test substances were dissolved in DMSO and further diluted in the cell culture medium. The adherent cells were harvested at the logarithmic growth phase after soft trypsinization using 0.25% trypsin in PBS containing 0.02% EDTA (Biochrom KG L2163). For each experiment, approximately 10,000 cells were seeded with 0.1 mL culture medium per well of the 96-well microplates (HUVEC: flat bottomed NUNC 167008, K-562: round bottomed NUNC 163320). […]
For the cytotoxicity assay, HeLa cells were preincubated for 48 hours without the test substances. To test the cytotoxic effect on HeLa, dilutions of the compounds were carried out carefully on the subconfluent monolayers of HeLa cells after the preincubation time. After incubation time, the cytolytic effect of compounds was analysed in comparison to the negative control. The 50% cytotoxic concentration (CC 50 ) was defined as the test compound concentration required for destruction of the cell monolayer by 50% compared to untreated control.
(§9) Cells were incubated with dilutions of the test substances in microplates for 72 hours at 37 °C in a humidified atmosphere and 5% CO 2. […]
(§10) cytotoxicity and the inhibition of cell proliferation. The number of viable cells was determined subsequent to staining with CellTiter-Blue® reagent or methylene blue. […]
(§11) HUVEC and HeLa cells: The adherent HUVEC and HeLa cells were fixed by glutaraldehyde (MERCK […]
(§12) gently washing, the stain was eluted by adding 0.2 mL of hydrochloric acid (0.33 M) to each well. The optical densities were measured at 660 nm (methylene blue) in SUNRISE microplate reader (TECAN).
(§13) General remarks: Signals from the methylene blue and CellTiter-Blue® reagent are proportional to the number of viable cells. A repeat determination has been conducted in all experiments, four replicates were assayed. The calculations of the different values of GI 50 and CC 50 were performed with the software

[1] = system: Mycobacterium vaccae (JMRC:STI:10670); assay: MIC determination; settings: for MIC: Mycolicibacterium vaccae, n = 1; for Selectivity index: ratio between CC50 (HeLa) and MIC M. vaccae; for antimycobacterial activity (in words): M. vaccae
Procedure: (§14) Supplementary Method 5: Biological Assays
(§15) Minimal inhibitory concentrations were determined against Mycobacterium vaccae (JMRC:STI:10670) and Mycobacterium smegmatis (JMRC:STH:00056). M. vaccae and M. smegmatis cultures were grown 48 h at 32 °C in a medium consisting of glycerol (1%), beef extract (0.5%), peptone from casein (0.5%) and sodium chloride (0.3%). Serial dilutions of the DMSO test item solutions (1 mg∙mL -1) were prepared at 100 µL scale in 96 well plates in Mueller Hinton broth starting at 200 µg∙mL -1 (highest) to cover a final concentration range of 100 to 0.05 µg∙mL -1. Each plate was equipped with a series of DMSO and ciprofloxacin dilutions as quality controls. 96 well plates were inoculated with 100 µL diluted culture (Mueller Hinton bullion) at a final concentration of 5∙10 5 and incubated at 37 °C for 42 h. Growth/no growth was visually inspected.
as §2, §3, §4, §5, §6, §7, §8
(§16) The test substances were dissolved in DMSO and further diluted in the cell culture medium. The adherent cells were harvested at the logarithmic growth phase after soft trypsinization using 0.25% trypsin in PBS containing 0.02% EDTA (Biochrom KG L2163). For each experiment, approximately 10,000 cells were seeded with 0.1 mL culture medium per well of the 96-well microplates (HUVEC: flat bottomed NUNC 167008, K-562: round bottomed NUNC 163320). To test the antiproliferative

[2] = system: Mycobacterium smegmatis (JMRC:STH:00056); assay: MIC determination; settings: Mycolicibacterium smegmatis; n = 1
Procedure: as §14
as §15, with “inspected. […]” for “inspected.”

HUVEC = assay: Proliferation assay; settings: Homo sapiens, 72 h, n = 4
Procedure: as §1, §2, §3, §4, §5, §6, §7, §8
as §16, with “antiproliferative […]” for “antiproliferative”
effect of test compounds on HUVEC and K-562, the cells were incubated for 72 hours in plates prepared with control and different dilutions of test substances. […]
of proliferation compared to the untreated control. […]
as §9, §10, §11, §12, §13

Structure (SMILES) | CC50 at 72 h (Cytotoxicity assay) | MIC [1] | Selectivity index [1] | MIC [2] | GI50 (HUVEC) | antimycobacterial activity (in words) [1] | MIC ([1]; 42 h)
COC(=O)c1cc([N+](=O)[O-])c2sc(N3CCC4(CC3)OC[C@H](C)O4)nc(=O)c2c1 [Compound 6a] | > 119 µM | 0.24 µM (≈ 0.101 µg/mL) | > 500 | 3.7 µM (≈ 1.56 µg/mL) | 80.6 ± 5 µM | – | –
CC(C)OC(=O)c1cc([N+](=O)[O-])c2sc(N3CCC4(CC3)OC[C@H](C)O4)nc(=O)c2c1 [Compound 6c] | > 111 µM | 0.22 µM (≈ 0.0989 µg/mL) | > 500 | 6.94 µM (≈ 3.12 µg/mL) | > 111 µM | – | –
C[C@H]1COC2(CCN(c3nc(=O)c4cc(C(=O)N(C)C)cc([N+](=O)[O-])c4s3)CC2)O1 [Compound 7c] | > 115 µM | 28.8 µM (≈ 12.5 µg/mL) | > 4 | 230 µM (≈ 100 µg/mL) | > 115 µM | – | –
CON(C)C(=O)c1cc([N+](=O)[O-])c2sc(N3CCC4(CC3)OC[C@H](C)O4)nc(=O)c2c1 [Compound 7f] | > 111 µM | 13.9 µM (≈ 6.26 µg/mL) | > 8 | 111 µM (≈ 50 µg/mL) | 98.5 ± 3.3 µM | – | –
C[C@H]1COC2(CCN(c3nc(=O)c4cc(C(=O)O)cc([N+](=O)[O-])c4s3)CC2)O1 [Compound 8] | > 123 µM | 0.98 µM (≈ 0.399 µg/mL) | > 125 | 15.3 µM (≈ 6.23 µg/mL) | > 123 µM | moderate activity | –
C[C@H]1COC2(CCN(c3nc(=O)c4cc(C#N)cc([N+](=O)[O-])c4s3)CC2)O1 [Compound 9] | > 129 µM | 0.016 µM (≈ 0.00621 µg/mL) | > 8062 | 0.13 µM (≈ 0.0505 µg/mL) | 49.9 ± 4.1 µM | similarly active as BTZ-043 (1) | –
C[C@H]1COC2(CCN(c3nc(=O)c4cc(I)cc([N+](=O)[O-])c4s3)CC2)O1 [Compound 10] | > 102 µM | 0.006 µM (≈ 0.00294 µg/mL) | > 16114 | 0.1 µM (≈ 0.0489 µg/mL) | > 102 µM | similarly active as BTZ-043 (1) | –
C[C@H]1COC2(CCN(c3nc(=O)c4cc(Br)cc([N+](=O)[O-])c4s3)CC2)O1 [Compound 11] | > 113 µM | 0.004 µM (≈ 0.00177 µg/mL) | > 31236 | 0.057 µM (≈ 0.0252 µg/mL) | > 113 µM | similarly active as BTZ-043 (1) | –
C[C@H]1COC2(CCN(c3nc(=O)c4cccc([N+](=O)[O-])c4s3)CC2)O1 [Compound 23] | > 138 µM | – | > 125 | 8.59 µM (≈ 3.12 µg/mL) | > 137 µM | significantly lower activity than 1 | 1.1 µM (≈ 0.4 µg/mL)
